Source: patent publication US20260191811A1, “COMBINATION OF CANNABIDIOL AND A PPAR AGONIST” (priority 2020, published 2026)

What was measured:
[1] = tested on: dopamine neurons in the ventral tegmental area (VTA); assay: Electrophysiology: VTA dopamine neuron recording after intra-NAc infusion; format: in vivo, rats
Protocol: Three experiments were run of this type. All included a vehicle. In addition, the components were as follows: • Experiment 1: • 100 ng CBD; 100 ng CBD+100 ng T007; 100 ng T007 • Experiment 2: • 50 ng CBD; 0.5 nmol n−3; 50 ng CBD+0.5 nmol n−3 • Experiment 3: • 1 ng CBD; 0.25 nmol n−3; 1 ng CBD+0.25 nmol n−3; 1 ng CBD+0.25 nmol n−3+100 ng T007 • In the above: • CBD=cannabidiol • T007=T0070907 (PPARg antagonist) • n−3=omega-3
The omega-3 formulation includes equal amounts of DHA and EPA. Two doses were used in this study. 0.5 nmol n−3 is made up of 0.5 nmol DHA and 0.5 nmol EPA. 0.25 nmol n−3 is made up of 0.25 nmol DHA and 0.25 nmol EPA.
In this procedure, rats were anesthetized with urethane. An electrode was used to record the baseline frequency of dopamine neurons in the ventral tegmental area (VTA) for 5 minutes. After the baseline recording, combinations of CBD, omega-3, and T007 (a PPARg antagonist) were infused into the nucleus accumbens (NAc).
The post-infusion frequency of that neuron was compared to its pre-infusion frequencies.
One of the characteristics of dopamine cells is that they have a tonic mode of firing and a burst mode of firing. Therefore, both the frequency and burst changes following infusions were analyzed. FIG. 1 looks at the frequency of VTA dopamine cells. The Y-axis is frequency (% Baseline). […] This means that after an intra-NAc infusion of 100 ng CBD, the dopamine cell would decrease in frequency about 15%.
FIG. 2 looking at difference in burst percentage. A burst is a group of signals occurring in a short period of time. Specifically, in this experiment, a burst is defined to be an event where 2 spikes occur within a timespan of 80 ms. […] As such, the number of bursts that occurred during pre-infusion was recording and the number of spikes that occurred in those bursts was determined. The number of those spikes occurring in those bursts was divided by the total number of spikes that occurred during the pre-infusion recording The same was done for the post-infusion recording and the difference between these 2 values was determined.

rats [2] = assay: Light dark box; format: in vivo; details: for time to make the second transition back into the light box: Experiment 1, FIG. 16, 100 ng T007
Protocol: In these experiments, the following was measured: • 1. First transition to the dark box • 2. Second transition to the light box • 3. Total number of transitions • 4. Time spent in the light box
One half of the box is open at the top and is brightly lit. There is an opening to the dark-box that is covered by a lid.
Rats would prefer to be in the dark box and would be anxious about going into the light box.
Following the infusion, the rate is placed in the light box facing away from the opening to the dark box. A 10 minute recording is made. During these 10 minutes, measurements are made of four things: • 1. The time it takes for the rat to make the first transition into the dark box • 2. The time it takes for the rat to make the second transition from the dark box back into the light box • 3. Number of transitions between boxes • 4. Time spent in light box
Therefore, it would be expected than less anxious rats would take a longer time to make the first transition into the dark box, spend less time to make the second transition into the light box, make more transitions between boxes, and spend more time in the light box.

rats [3] = assay: Olfactory fear conditioning; format: in vivo; details: Experiment 3, FIG. 36, 1 ng CBD, 0.25 nmol omega-3
Text: The olfactory fear conditioning protocol is for measurement of the formation of fear memory. This protocol lasts three days. On day 1, the rat is habituated to two boxes (one with a striped background and one with a polka dot back ground).
On day 2, the rat receives a drug infusion and is placed into one of the boxes (previously assigned as the “shock box”). While in the box, the rat is exposed to 2 odours (peppermint and almond). The rat is exposed to one odour followed by the other odour 5 times. One of these odours were previously assigned as the “shock” odour (CS+) such that after exposure to the “shock” odour, the rat would receive a foot shock. There was no foot shock following exposure to the “safe” odour (CS−). On day 3, the rat was placed in the safe box. They were exposed to each odour (both CS+ and CS−) one at a time for 5 minutes. During the 5 minutes, freezing behaviour was recorded.
It would be expected that CBD would block the formation of fear memory and the rats would freeze a similar amount to CS+ and CS−.
2-way repeated measures ANOVA was performed for the three experiments. With reference to FIG. 34, there was no significant interaction effect by group x CS (p=0.209).

rats [4] = assay: Elevated plus maze; format: in vivo; details: intra-NAc; for number of entries into the open arms: Experiment 3, FIG. 13
Protocol: In these experiments, the following was measured: • 1. Time in open arms • 2. Entries into open arms
In these experiments, the apparatus of FIG. 7 was used.
As shown, the apparatus includes 2 open arms and 2 closed arms that form a plus shape. Rats feel more secure in closed spaces and thus it would be expected that more anxious rats would spend more time in the closed arms and less time on the open arms.
Before each test, the same doses of drugs used in the electrophysiology experiments were infused.
The rat was then placed in the middle of the apparatus, facing into the closed arms and recorded for 10 minutes.
The number of entries into the open arms and the total time spent in the open arms was recorded. Less anxious rats would be expected to make more entries into the open arms and spend more time there as well.

[5] = Experiment 3, FIG. 5, 1 ng CBD, 0.25 nmol omega-3, 1 ng CBD+0.25 nmol omega-3, combination+100 ng T007, intra-NAc, compared to vehicle
[6] = 100 ng CBD, 100 ng CBD+100 ng T007
[7] = Experiment 3, FIG. 24, 1 ng CBD, 0.25 nmol omega-3, combination, combination+100 ng T007
[8] = first experiment, FIG. 17, 100 ng CBD, 100 ng CBD+100 ng T007
[9] = first experiment, FIG. 18, 100 ng CBD, 100 ng CBD+100 ng T007
[10] = Experiment 3, FIG. 12, 1 ng CBD, 0.25 nmol omega-3, combination, combination+100 ng T007
[11] = 1 ng CBD, 0.25 nmol omega-3, combination, combination+100 ng T007

| Structure (SMILES) | VTA dopamine activity [1, 5] | time to make the second transition back into the light box (rats [2]; [6]) | time to make the second transition (rats [2]; [7]) | number of transitions between boxes (rats [2]; [8]) | time spent in the light box (rats [2]; [9]) | time spent in open arms (rats [4]; [10]) | number of entries into the open arms (rats [4]; [11]) | other results |
| --- | --- | --- | --- | --- | --- | --- | --- | --- |
| C=C(C)[C@@H]1CCC(C)=C[C@H]1c1c(O)cc(CCCCC)cc1O [CBD, cannabidiol] | not different from vehicle | significantly decreased | ineffective | significantly increased | significantly increased | ineffective | not effective | frequency (% Baseline) of VTA dopamine cells ([1]; Experiment 1, FIG. 1, 100 ng CBD intra-NAc infusion, post- vs pre-infusion): about 85%; VTA dopamine frequency ([1]; Experiment 1, FIG. 1, 100 ng CBD, 100 ng CBD+100 ng T007, 100 ng T007, intra-NAc): decreasing trend; decrease in frequency of the dopamine cell ([1]; Experiment 1, FIG. 1, after intra-NAc infusion of 100 ng CBD): about 15%; difference in burst percentage (VTA DA bursts) ([1]; Experiment 1, FIG. 2, 100 ng CBD, 100 ng CBD+100 ng T007, 100 ng T007, intra-NAc): very slight decrease; VTA dopamine activity ([1]; Experiment 2, FIG. 3, 50 ng CBD, 0.5 nmol omega-3, 50 ng CBD+0.5 nmol omega-3, intra-NAc): ineffective; time to make the second transition (rats [2]; Experiment 2, FIG. 20, 50 ng CBD, 0.5 nmol omega-3, 50 ng CBD+0.5 nmol omega-3): not effective; number of transitions between boxes (rats [2]; Experiment 3, FIG. 25, 1 ng CBD, 0.25 nmol omega-3, 1 ng CBD+0.25 nmol omega-3): ineffective; time spent in the light box (rats [2]; Experiment 3, FIG. 26, 1 ng CBD, 0.25 nmol omega-3, 1 ng CBD+0.25 nmol omega-3): ineffective; freezing time compared to vehicle (rats [3]; 1 ng CBD+0.25 nmol omega-3): not different from vehicle; time spent in open arms (rats [4]; Experiment 1, FIG. 8, 100 ng CBD, 100 ng CBD+100 ng T007, 100 ng T007, 10 minutes): slight increase; number of entries into open arms (rats [4]; Experiment 1, FIG. 9, 100 ng CBD, 100 ng CBD+100 ng T007, 100 ng T007, 10 minutes): slight increase; time spent in open arms (rats [4]; Experiment 2, FIG. 10, 50 ng CBD, 0.5 nmol omega-3, 50 ng CBD+0.5 nmol omega-3): not effective; number of entries into open arms (rats [4]; Experiment 2, FIG. 11, 50 ng CBD, 0.5 nmol omega-3, 50 ng CBD+0.5 nmol omega-3): not effective |
| O=C(Nc1ccncc1)c1cc([N+](=O)[O-])ccc1Cl [T007] | blocked | blocked | blocked | blocked | blocked | blocked | blocked | difference between the freezing time to CS+ and CS− (fear memory formation) (rats [3]; combination, combination+100 ng T007): blocked slightly |
